Data taken from patent publication US6251894A, “1-(1,2-disubstituted piperidinyl)-4 (fused imidazole)-piperidine derivatives” (Janssen Pharmaceuticals N.V., priority 1995, dated 2001).
Read-outs that look alike come from different tables or passages of the source.

How the values were obtained:
[1] = tested on: Substance P Induced Relaxation of the Pig Coronary Arteries; test: Antagonism of substance P induced relaxation of the pig coronary arteries; conditions: 30 min incubation
Protocol: Antagonism of Substance P Induced Relaxation of the Pig Coronary Arteries
Segments of coronary arteries taken from pigs (killed by injection of an overdose of sodium pentobarbital) were inverted and mounted for recording of isometric tension in organ baths (volume 20 ml) with the endothelium at the outside. The preparations were bathed in Krebs-Henseleit solution. The solution was kept at 37° C. and gassed with a mixture of O2 /CO2 (95/5). After stabilisation of the preparations, prostaglandin F2α (10^-5 M) was administered to induce a contraction. This was repeated until contractile responses became stable. Then prostaglandin F2α was again administered and substance P (3×10^-10 M and 10^-9 M cumulatively) was added. Substance P induced endothelium dependent relaxations. After washing away the agonists, a known concentration of a compound of formula (I) was added. After an incubation period of 30 minutes, prostaglandin F2α (10^-5 M) and the same concentrations of substance P as described above were again administered in the presence of the compound to be tested.

[2] = tested on: Substance P Induced Plasma Extravasation; test: Antagonism of substance P induced plasma extravasation in guinea-pigs; type: in vivo, guinea-pig; conditions: Cavia porcellus, sc, s.c., 1 hour prior to substance P
Protocol: Antagonism of Substance P Induced Plasma Extravasation in Guinea-pigs
Plasma travasation was induced by injection of substance P (2 mg/kg) in the femoral artery of female guinea-pigs. Evans Blue dye (30 mg/kg) was injected simultaneously. The test compound or solvent was administered subcutaneous (s.c.) or orally (p.o.) 1 hour prior to substance P injection. 10 minutes after challenge, the animals were checked for blue colouring (a direct measure for plasma extravasation) of the nose, the forepaws, and the conjunctiva. 30 minutes after challenge, the animals were sacrificed by CO2 gas inhalation and checked for blue colouring of the trachea and the urinary bladder. […]

[3] = test compound concentration 3 × 10^-9 (unit not given)
[4] = test compound concentration 3 × 10^-8 (unit not given)
[5] = 10 min, conjunctiva, read-out: lowest active dose (LAD), conjunctiva
[6] = 10 min, forepaws, read-out: lowest active dose (LAD), forepaws
[7] = 10 min, nose, read-out: lowest active dose (LAD), nose
[8] = 0.5 h, trachea, read-out: lowest active dose (LAD), trachea
[9] = 0.5 h, urinary bladder, read-out: lowest active dose (LAD), urinary bladder

SMILES	% inhibition of the response to 10^-9 M substance P [1, 3] [%]	further results
O=C(c1cc(C(F)(F)F)cc(C(F)(F)F)c1)N1CC[C@@H](N2CCC(C3c4ccccc4CCn4c3nc3ccccc34)CC2)C[C@@H]1Cc1ccc(Cl)c(Cl)c1 (mixture of isomers) [Compound 63, (±)-trans-1-[3,5-bis(trifluoromethyl)benzoyl]-2-[(3,4-dichlorophenyl)methyl]-4-[4-(11,12-dihydro-6H-benzimidazo[2,1-b][3]benzazepin-6-yl)-1-piperidinyl]piperidine]	61.4	
O=C(c1cc(C(F)(F)F)cc(C(F)(F)F)c1)N1CC[C@@H](N2CCC(=C3c4sccc4CCn4ccnc43)CC2)C[C@H]1Cc1ccccc1 (relative stereo) [Compound 6]		% inhibition of the response to 10^-9 M substance P [1, 4]: 93.9%
O=C(c1cc(C(F)(F)F)cc(C(F)(F)F)c1)N1CC[C@@H](N2CCC(=C3c4ccccc4CCn4ccnc43)CC2)C[C@H]1Cc1ccccc1 (relative stereo) [Compound 23]	13.4	
Cc1cc(C)cc(C(=O)N2CC[C@@H](N3CCC(=C4c5ccccc5CCn5c(C=O)cnc54)CC3)C[C@H]2Cc2ccccc2)c1 (relative stereo) [Compound 24]	38.3	
COC(=O)c1cnc2n1CCc1ccsc1C2=C1CCN([C@@H]2CCN(C(=O)c3cc(C)cc(C)c3)[C@@H](Cc3ccccc3)C2)CC1 (relative stereo) [Compound 36]	23.7	
Cc1cc(C)cc(C(=O)N2CC[C@H](N3CCC(=C4c5ccsc5CCn5ccnc54)CC3)C[C@@H]2Cc2ccccc2)c1 (relative stereo) [Compound 38]	27.1	
COC(=O)c1cnc2n1CCc1ccccc1C2=C1CCN([C@H]2CCN(C(=O)c3cc(C)cc(C)c3)[C@@H](Cc3ccccc3)C2)CC1 (relative stereo) [Compound 40]	8.4	
Cc1cc(C)cc(C(=O)N2CC[C@H](N3CCC(=C4c5ccccc5CCn5c(Cl)cnc54)CC3)C[C@@H]2Cc2ccccc2)c1 (relative stereo) [Compound 43]	16	
Cc1cc(C)cc(C(=O)N2CC[C@H](N3CCC(=C4c5ccccc5CCn5c(Cl)cnc54)CC3)C[C@H]2Cc2ccccc2)c1 (relative stereo) [Compound 44]	63.9	
Cc1cc(C)cc(C(=O)N2CC[C@H](N3CCC(=C4c5ccccc5CCn5c4nc4ccccc45)CC3)C[C@@H]2Cc2ccccc2)c1 (relative stereo) [Compound 45]	7.9	
Cc1cc(C)cc(C(=O)N2CC[C@H](N3CCC(=C4c5ccccc5CCn5c4nc4ccccc45)CC3)C[C@H]2Cc2ccccc2)c1 (relative stereo) [Compound 46]	54.3	
O=C(c1cc(Cl)cc(Cl)c1)N1CC[C@H](N2CCC(=C3c4ccccc4CCn4ccnc43)CC2)C[C@H]1Cc1ccccc1 (relative stereo) [Compound 48]	59.7	
O=C(c1cc(C(F)(F)F)cc(C(F)(F)F)c1)N1CC[C@H](N2CCC(=C3c4ccccc4CCn4c3nc(CO)c4CO)CC2)C[C@H]1Cc1ccccc1 (relative stereo) [Compound 49]	52.5	
Cc1ccc2c(c1)CCn1ccnc1C2=C1CCN([C@H]2CCN(C(=O)c3cc(C(F)(F)F)cc(C(F)(F)F)c3)[C@@H](Cc3ccccc3)C2)CC1 (relative stereo) [Compound 50]	25	
Cc1ccc2c(c1)CCn1ccnc1C2=C1CCN([C@H]2CCN(C(=O)c3cc(C(F)(F)F)cc(C(F)(F)F)c3)[C@H](Cc3ccccc3)C2)CC1 (relative stereo) [Compound 51]	86.3	
Cc1cc(C)cc(C(=O)N2CC[C@H](N3CCC(=C4c5ccc(C)cc5CCn5ccnc54)CC3)C[C@@H]2Cc2ccccc2)c1 (relative stereo) [Compound 56]	9.5	
Cc1cc(C)cc(C(=O)N2CC[C@H](N3CCC(=C4c5ccc(C)cc5CCn5ccnc54)CC3)C[C@H]2Cc2ccccc2)c1 (relative stereo) [Compound 57]	66.7	
O=C(c1cc(C(F)(F)F)cc(C(F)(F)F)c1)N1CC[C@H](N2CCC(=C3c4ccccc4CCn4c(Cl)cnc43)CC2)C[C@H]1Cc1ccccc1 (relative stereo) [Compound 58]	91.5	

SMILES	% inhibition of the response to 10^-9 M substance P [1, 3] [%]	further results
Cc1cn2c(n1)C(=C1CCN([C@H]3CCN(C(=O)c4cc(C(F)(F)F)cc(C(F)(F)F)c4)[C@@H](Cc4ccccc4)C3)CC1)c1ccn(C)c1CC2 (relative stereo) [Compound 59]	76.5	
Cc1cn2c(n1)C(=C1CCN([C@H]3CCN(C(=O)c4cc(C(F)(F)F)cc(C(F)(F)F)c4)[C@H](Cc4ccccc4)C3)CC1)c1ccn(C)c1CC2 (relative stereo) [Compound 60]	89.9	
Cc1cc(C)cc(C(=O)N2CC[C@H](N3CCC(=C4c5ccccc5CCn5c4nc(CO)c5CO)CC3)C[C@@H]2Cc2ccccc2)c1 (relative stereo) [Compound 61]	7.5	
O=C(c1cc(C(F)(F)F)cc(C(F)(F)F)c1)N1CC[C@H](N2CCC(=C3c4ccccc4CCn4c(Cl)cnc43)CC2)C[C@@H]1Cc1ccccc1 (relative stereo) [Compound 62]	49.0	
O=C(c1cc(C(F)(F)F)cc(C(F)(F)F)c1)N1CC[C@H](N2CCC(=C3c4ccccc4CCn4c3nc3ccccc34)CC2)C[C@@H]1Cc1ccccc1 (relative stereo) [Compound 71]	53.1	
O=C(c1ccco1)N1CC[C@@H](N2CCC(=C3c4ccccc4CCn4ccnc43)CC2)C[C@@H]1Cc1ccccc1 (relative stereo) [Compound 77]	3.2	
O=C(c1ccc2ccccc2c1)N1CC[C@@H](N2CCC(=C3c4ccccc4CCn4ccnc43)CC2)C[C@@H]1Cc1ccccc1 (relative stereo) [Compound 78]	7.5	
O=C(Nc1cc(C(F)(F)F)cc(C(F)(F)F)c1)N1CC[C@@H](N2CCC(=C3c4ccccc4CCn4ccnc43)CC2)C[C@@H]1Cc1ccccc1 (relative stereo) [Compound 80]	10.9	
O=C(c1ccc2[nH]ccc2c1)N1CC[C@@H](N2CCC(=C3c4ccccc4CCn4ccnc43)CC2)C[C@@H]1Cc1ccccc1 (relative stereo) [Compound 81]	2.2	
O=C(c1ccc2ccccc2c1)N1CC[C@H](N2CCC(=C3c4ccccc4CCn4ccnc43)CC2)C[C@@H]1Cc1ccccc1 (relative stereo) [Compound 84]	2.4	
O=C(c1cc2cc(F)ccc2[nH]1)N1CC[C@H](N2CCC(=C3c4ccccc4CCn4ccnc43)CC2)C[C@@H]1Cc1ccccc1 (relative stereo) [Compound 89]	1.1	
O=C(c1cc(C(F)(F)F)cc(C(F)(F)F)c1)N1CC[C@H](N2CCC3(CC2)c2ccccc2CCn2ccnc23)C[C@@H]1Cc1ccccc1 (relative stereo) [Compound 117]		minimal effective dose [2, 5]: 2.5 mg/kg; minimal effective dose [2, 6]: 2.5 mg/kg; minimal effective dose [2, 7]: 2.5 mg/kg; minimal effective dose [2, 8]: 40 mg/kg; minimal effective dose [2, 9]: 10 mg/kg
O=C(c1cc(C(F)(F)F)cc(C(F)(F)F)c1)N1CC[C@@H](N2CCC3(CC2)c2ccccc2CCn2ccnc23)C[C@@H]1Cc1ccccc1 (relative stereo) [Compound 118]		minimal effective dose [2, 5]: 10 mg/kg; minimal effective dose [2, 6]: 10 mg/kg; minimal effective dose [2, 7]: 10 mg/kg; minimal effective dose [2, 8]: 10 mg/kg; minimal effective dose [2, 9]: 10 mg/kg
Cc1cc(C)cc(C(=O)N2CC[C@@H](N3CCC4(CC3)c3ccccc3CCn3ccnc34)C[C@H]2Cc2ccccc2)c1 (relative stereo) [Compound 119, (±)-cis-4-(5,6-dihydrospiro[11H-imidazo[2,1-b][3]benzazepine-11,4'-piperidin]-1-yl)-1-(3,5-dimethylbenzoyl)-2-(phenylmethyl)piperidine]	9.3	
O=C(c1cc(C(F)(F)F)cc(C(F)(F)F)c1)N1CCC(N2CCC(C3c4ccccc4CCn4c3nc3ccccc34)CC2)CC1Cc1ccccc1 (stereo not shown) [Compound 12]		% inhibition of the response to 10^-9 M substance P [1, 4]: 93.2%
O=C(c1cc(C(F)(F)F)cc(C(F)(F)F)c1)N1CC[C@H](N2CCC(C3c4ccccc4CCn4c3nc3ccccc34)CC2)C[C@H]1Cc1ccccc1 (stereo partly shown) [Compound 13]	74.2	
Cc1cc(C)cc(C(=O)N2CCC(N3CCC(=C4c5ccccc5CCn5c(C)cnc54)CC3)CC2Cc2ccccc2)c1 (stereo not shown) [Compound 28]	37.4	
